Here are results for 17 compounds from ChEMBL document CHEMBL4808236, “New phorbol ester derivatives as potent anti-HIV agents” (Bioorg Med Chem Lett, 2021).

Data set [1] deals with Human immunodeficiency virus 1. Nature of the data set: Antiviral activity against HIV-1 NL4-3 infected in human MT4 cells assessed as reduction in p24 production treated at 48 hrs post-infection and measured on day 4 post-viral infection by ELISA. Conditions: Human immunodeficiency virus 1, NL4-3, MT4. It counts as functional, organism-based.
The next data set relates to MT4. Nature of the data set: Cytotoxicity against human MT4 cells assessed as reduction in cell viability by CellTiter-Glo luminescence assay. The data set is classed as cell-based.
The test system of the next data set is A549. Kind of data set: Antiproliferative activity against human A549 cells assessed as reduction in cell viability measured after 72 hrs by SRB assay. Conditions: A549, 72 h.
The next data set relates to MDA-MB-231. Kind of data set: Antiproliferative activity against human MDA-MB-231 cells assessed as reduction in cell viability measured after 72 hrs by SRB assay. The data set is classed as functional, cell-based. Conditions: MDA-MB-231, 72 h.
A further data set deals with KB. Kind of data set: Antiproliferative activity against human KB cells assessed as reduction in cell viability measured after 72 hrs by SRB assay. The data set is classed as functional, cell-based.
A short description of data set [2]: Antiproliferative activity against human KB-VIN cells assessed as reduction in cell viability after 72 hrs by SRB assay. The data set is classed as functional, cell-based. Conditions: KBVIN.
A further data set has as its system MCF7. Kind of data set: Antiproliferative activity against human MCF7 cells assessed as reduction in cell viability measured after 72 hrs by SRB assay. The data set is classed as functional, cell-based. Conditions: MCF7, 72 h.

Take `Cc1cn([C@H]2C[C@H](N=[N+]=[N-])[C@@H](CO)O2)c(=O)[nH]c1=O` [ZIDOVUDINE]: the IC50 in data set [1] stood at 0.0169 µM. Also, the CC75 with MT4 is above 0.37 µM.

`CC(=O)OCC1=C[C@H]2[C@@H]3C(C)(C)[C@]3(OC(C)=O)[C@H](O)[C@@H](C)[C@]2(O)[C@@H]2C=C(C)C(=O)[C@@]2(O)C1`: the CC75 with MT4 was above 5 µM.

For the compound `CCCC(=O)OCC1=C[C@H]2[C@@H]3C(C)(C)[C@]3(OC(=O)CCC)[C@H](OC(=O)/C=C/c3ccc(OC(C)=O)c(OC)c3)[C@@H](C)[C@]2(O)[C@@H]2C=C(C)C(=O)[C@@]2(O)C1`, the concentration for half-maximal inhibition (IC50) with A549 was 3.71 µM; with MDA-MB-231 it was 6.06 µM; with KB, 8.54 µM; in data set [2], 12.6 µM; in the data set with MCF7 it was 9.32 µM; in data set [1], above 10 µM.

As to `C/C=C(/C)C(=O)O[C@]12C([C@@H]3C=C(CO)C[C@]4(O)C(=O)C(C)=C[C@H]4[C@@]3(O)[C@H](C)[C@H]1O)C2(C)C` (single isomer, unassigned), the half-inhibitory concentration (IC50) (with A549; with MDA-MB-231; with KB; in data set [2]; in the data set on MCF7; in data set [1]) was above 10 µM throughout. For the same compound, the CC75 in the data set on MT4 is above 5 µM.

Take `CC(=O)OCC1=C[C@H]2[C@@H]3C(C)(C)[C@]3(OC(C)=O)[C@H](OC(C)=O)[C@@H](C)[C@]2(O)[C@@H]2C=C(C)C(=O)[C@@]2(O)C1`: the IC50 (in the data set with A549; in the data set with MDA-MB-231; in the data set on KB; in data set [2]; with MCF7; in data set [1]) was above 10 µM each time. Further, the CC75 in the data set with MT4 is above 5 µM.

Turning to `CC1=C[C@H]2[C@@]3(O)[C@H](C)[C@@H](O)[C@]4(OC(=O)/C=C/c5ccccc5)C([C@@H]3C=C(CO)C[C@]2(O)C1=O)C4(C)C` (single isomer, unassigned), the IC50 (in the data set with A549; in the data set on MDA-MB-231; in the data set on KB; in data set [2]; in the data set with MCF7; in data set [1]) was above 10 µM in each case. Further, the CC75 in the data set with MT4 is above 5 µM.

For `C/C=C/C(=O)O[C@]12C([C@@H]3C=C(CO)C[C@]4(O)C(=O)C(C)=C[C@H]4[C@@]3(O)[C@H](C)[C@H]1O)C2(C)C` (single isomer, unassigned), the IC50 (in the data set on A549; in the data set with MDA-MB-231; in the data set on KB; in data set [2]; in the data set on MCF7; in data set [1]) was above 10 µM in each case. Besides, in the data set with MT4, the CC75 is above 5 µM.

As for `C/C=C/C(=O)O[C@@H]1[C@@H](C)[C@@]2(O)[C@@H](C=C(CO)C[C@]3(O)C(=O)C(C)=C[C@@H]23)[C@@H]2C(C)(C)[C@]12OC(=O)/C=C/C`, the IC50 in the data set with A549 is above 10 µM; in the data set on MDA-MB-231, above 10 µM; with KB, above 10 µM; in data set [2] it was above 10 µM; in the data set on MCF7, above 10 µM; in data set [1], 0.408 µM. In addition, the CC75 in the data set with MT4 was above 10 µM.

On to `COc1cc(/C=C/C(=O)O[C@]23C([C@@H]4C=C(CO)C[C@]5(O)C(=O)C(C)=C[C@H]5[C@@]4(O)[C@H](C)[C@H]2O)C3(C)C)ccc1C(C)=O` (single isomer, unassigned), for which the IC50 (in the data set with A549; in the data set on MDA-MB-231; in the data set with KB; in data set [2]; with MCF7; in data set [1]) was above 10 µM throughout. Moreover, the CC75 with MT4 was above 5 µM.

`CCCC(=O)OCC1=C[C@H]2C3C(C)(C)[C@]3(OC(=O)CCC)[C@H](OC(=O)/C=C/c3ccccc3)[C@@H](C)[C@]2(O)[C@@H]2C=C(C)C(=O)[C@@]2(O)C1` (single isomer, unassigned): the IC50 in the data set on A549 is 3.27 µM; in the data set with MDA-MB-231 it was 6.3 µM; with KB, above 10 µM; in data set [2] it was above 10 µM; in the data set with MCF7, above 10 µM; in data set [1] it was 0.0733 µM. The CC75 in the data set on MT4 is above 5 µM.

`CC1=C[C@H]2[C@@]3(O)[C@H](C)[C@@H](O)[C@]4(OC(=O)CCc5ccccc5)C([C@@H]3C=C(CO)C[C@]2(O)C1=O)C4(C)C` (single isomer, unassigned): the IC50 is above 10 µM with A549; above 10 µM in the data set on MDA-MB-231; above 10 µM in the data set with KB; above 10 µM in data set [2]; above 10 µM with MCF7; 5.46 µM in data set [1]. The CC75 with MT4 is above 10 µM.

As to `CC/C=C/C/C=C/C/C=C/C/C=C/C/C=C/CCCC(=O)O[C@@H]1[C@@H](C)[C@@]2(O)[C@@H](C=C(CO)C[C@]3(O)C(=O)C(C)=C[C@@H]23)[C@@H]2C(C)(C)[C@]12OC(=O)CCC/C=C/C/C=C/C/C=C/C/C=C/C/C=C/CC`, the IC50 was above 10 µM in the data set with A549; above 10 µM in the data set on MDA-MB-231; above 10 µM in the data set on KB; above 10 µM in data set [2]; above 10 µM in the data set with MCF7; 0.11 µM in data set [1]. In the data set with MT4, the CC75 is above 5 µM.

Consider `CC/C=C/C/C=C/C/C=C/C/C=C/C/C=C/CCCC(=O)OCC1=C[C@H]2[C@@H]3C(C)(C)[C@]3(OC(=O)CCC/C=C/C/C=C/C/C=C/C/C=C/C/C=C/CC)[C@H](O)[C@@H](C)[C@]2(O)[C@@H]2C=C(C)C(=O)[C@@]2(O)C1`, for which the IC50 in the data set with A549 is above 10 µM; in the data set on MDA-MB-231, above 10 µM; in the data set on KB, above 10 µM; in data set [2] it was above 10 µM; with MCF7, above 10 µM; in data set [1] it was 2.23 µM. The CC75 with MT4 is above 5 µM.

For the compound `CC(=O)O[C@@H]1[C@@H](C)[C@@]2(O)[C@@H](C=C(CO)C[C@]3(O)C(=O)C(C)=C[C@@H]23)[C@@H]2C(C)(C)[C@]12OC(C)=O`, the IC50 was 7.49 µM in the data set on A549; 8.91 µM in the data set with MDA-MB-231; above 10 µM with KB; above 10 µM in data set [2]; above 10 µM in the data set with MCF7; 1.36 µM in data set [1]. Besides, in the data set with MT4, the CC75 is above 10 µM.

For the compound `COc1cc(/C=C/C(=O)O[C@@H]2[C@@H](C)[C@@]3(O)[C@@H](C=C(CO)C[C@]4(O)C(=O)C(C)=C[C@@H]34)[C@@H]3C(C)(C)[C@]23OC(C)=O)ccc1O`, the IC50 is above 10 µM in the data set with A549; above 10 µM with MDA-MB-231; above 10 µM in the data set on KB; above 10 µM in data set [2]; above 10 µM in the data set on MCF7; 0.362 µM in data set [1]. In addition, the CC75 in the data set with MT4 was above 5 µM.

Consider `CCCC(=O)OCC1=C[C@H]2[C@@H]3C(C)(C)[C@]3(OC(=O)CCC)[C@H](O)[C@@H](C)[C@]2(O)[C@@H]2C=C(C)C(=O)[C@@]2(O)C1`, for which the CC75 with MT4 is above 5 µM.

For `CC(=O)O[C@H]1C(=O)[C@@]2(C)[C@H]([C@H](OC(=O)c3ccccc3)[C@]3(O)C[C@H](OC(=O)[C@H](O)[C@@H](NC(=O)c4ccccc4)c4ccccc4)C(C)=C1C3(C)C)[C@]1(OC(C)=O)CO[C@@H]1C[C@@H]2O` [PACLITAXEL], the IC50 in the data set on MDA-MB-231 came to 0.008 µM; in the data set with KB, 0.008 µM; in data set [2] it was 2.54 µM; with MCF7, 0.015 µM.
